The values below come from publication PMC6202471 (CPT: Pharmacometrics & Systems Pharmacology, 2018).

Like-named read-outs stand apart in the source and are kept apart here.

For data set [1], the target named is T1, CYP2B6 (Homo sapiens, UniProt P20813).
T1 sequence (P20813 1-491): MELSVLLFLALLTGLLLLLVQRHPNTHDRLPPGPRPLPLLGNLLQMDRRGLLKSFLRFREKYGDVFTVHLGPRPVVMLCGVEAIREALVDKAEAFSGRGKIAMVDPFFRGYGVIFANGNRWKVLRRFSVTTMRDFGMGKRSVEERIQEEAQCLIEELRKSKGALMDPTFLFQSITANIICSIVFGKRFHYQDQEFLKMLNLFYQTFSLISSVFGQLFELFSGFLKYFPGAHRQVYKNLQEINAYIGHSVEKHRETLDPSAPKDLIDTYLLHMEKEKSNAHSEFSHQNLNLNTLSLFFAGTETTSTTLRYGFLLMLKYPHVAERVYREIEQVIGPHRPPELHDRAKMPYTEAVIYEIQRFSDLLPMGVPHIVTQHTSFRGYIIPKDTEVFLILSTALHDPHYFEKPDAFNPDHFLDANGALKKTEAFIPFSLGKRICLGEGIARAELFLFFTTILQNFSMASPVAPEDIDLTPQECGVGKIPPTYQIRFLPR
The conditions noted are these: after administration of ticlopidine.

The conditions of data set [2]: cited from earlier work; for AUC, NCA results: trapezoidal rule with extrapolation to infinity.
For data set [3] the following is noted: cited from earlier work; for f u,GW, unbound drug fraction in the gut wall: fixed to 1.
For data set [4] the following is noted: cited from earlier work; for K a,TIC, absorption rate constant, fixed to a published value: FIXED in the model.
Data set [5] in a line: Semimechanistic population pharmacokinetic model. To be noted: for CLINT,H, intrinsic hepatic clearance, SIR median: SIR 20,000 samples, 2,000 resamples; for CLINT,H, intrinsic hepatic clearance, SIR median / CLINT,GW, intrinsic gut wall clearance, SIR median / Q PER1, central to first peripheral compartment clearance, SIR median / V C, volume of central compartment, SIR median / V PER1, volume of first peripheral compartment, SIR median / V C, volume of central compartment, NONMEM mean θ estimate / V PER1, volume of first peripheral compartment, NONMEM mean θ estimate: norketamine values apparent; for CLINT,GW, intrinsic gut wall clearance, NONMEM mean θ estimate / CLINT,H, intrinsic hepatic clearance, NONMEM mean θ estimate: norketamine values apparent (F met set to 1).

Data set [6] has as its target T1, CYP2B6. The conditions noted are these: in vitro study; cited from earlier work.
Setting [7] is: S-ketamine p.o. ticlopidine-phase.

For the compound `CN[C@]1(c2ccccc2Cl)CCCCC1=O` [S‐ketamine], the “Intrinsic hepatic clearance of S-ketamine” value at CYP2B6 [1] was 113 L/h. Besides, the “Total hepatic clearance of S-ketamine” value at CYP2B6 [1] (well-stirred model) came out at 60 L/h. For the same compound, in data set [2] (S-ketamine i.v. placebo-phase), the “C max, NCA results” value is 32 ng/mL. For the same compound, in data set [2] (S-ketamine p.o. placebo-phase), the “C max, NCA results” value was 9.9 ng/mL and the “AUC, NCA results” value is 21 ng·h/mL. Moreover, in data set [2] (setting [7]), the “C max, NCA results” value is reported as 17 ng/mL and the “AUC, NCA results” value is 54 ng·h/mL. Moreover, in data set [3] (S-ketamine), the “f u,SK, unbound drug fraction in the blood” value is given as 0.70. In addition, the “f u,GW, unbound drug fraction in the gut wall” value (from here on “f u,GW, unbound drug fraction”) in data set [3] was 1. The “Share of S-ketamine metabolized to norketamine in vivo” value in data set [4] is given as ~ 80%. Moreover, the “F met, true value for S-ketamine to norketamine metabolism” value in data set [4] (humans, set to 1 in the model) was “b Should be considered as apparent rather than absolute values, as F met was set to 1 but true value of F met = 0.80 in humans for S‐ketamine to norketamine metabolism”. Also, in data set [5] (SIR), the “K a, absorption rate constant, SIR median” value turned out to be 1.78 h⁻¹; the “Q PER2, central to second peripheral compartment clearance, SIR median” value worked out at 22.3 L/h; the “V PER2, volume of second peripheral compartment, SIR median” value came out at 180 L; the “CLINT,GW, intrinsic gut wall clearance, SIR median” value is on record as 1.22 L/h. For the same compound, in data set [5] (SIR), the “Q PER1, central to first peripheral compartment clearance, SIR median” value was 288 L/h; the “V C, volume of central compartment, SIR median” value (from here on “V C, volume … SIR median”) turned out to be 14.4 L; the “V PER1, volume of first peripheral compartment, SIR median” value (“V PER1, volume … SIR median” for short) is recorded as 102 L. For the same compound, the “CLINT,H, intrinsic hepatic clearance, SIR median” value in data set [5] was found to be 304 L/h. For the same compound, in data set [5] (exponential IIV model), the “Interindividual variability on CLINT,GW, NONMEM estimate” value is 2.1; the “Interindividual variability on CLINT,H, NONMEM estimate” value is 0.25; the “Interindividual variability on K a, NONMEM estimate” value is reported as 0.42; the “Interindividual variability on V PER1, NONMEM estimate” value is reported as 0.045. In addition, in data set [5] (exponential IIV model, SIR), the “Interindividual variability on CLINT,GW, SIR median” value came to 2.0; the “Interindividual variability on CLINT,H, SIR median” value is recorded as 0.26; the “Interindividual variability on K a, SIR median” value was determined as 0.44; the “Interindividual variability on V PER1, SIR median” value is given as 0.046. Moreover, in data set [5] (final model), the “K a, absorption rate constant, NONMEM mean θ estimate” value was 1.76 h⁻¹; the “V PER2, volume of second peripheral compartment, NONMEM mean θ estimate” value was 180 L; the “V C, volume of central compartment, NONMEM mean θ estimate” value (from here on “V C, volume … NONMEM mean θ estimate”) is on record as 14.4 L; the “V PER1, volume of first peripheral compartment, NONMEM mean θ estimate” value (“V PER1, volume … NONMEM mean θ estimate” for short) was 102 L. Also, in data set [5] (final model), the “CLINT,GW, intrinsic gut wall clearance, NONMEM mean θ estimate” value is reported as 1.19 L/h and the “CLINT,H, intrinsic hepatic clearance, NONMEM mean θ estimate” value is 301 L/h. Also, the “Total hepatic clearance of S-ketamine” value in data set [5] (placebo phase, well-stirred model) is 71 L/h.

Regarding `Clc1ccccc1CN1CCc2sccc2C1` [Ticlopidine, ticlopidine], the “f u,GW, unbound drug fraction” value in data set [3] is 1. Also, in data set [4], the “K a,TIC, absorption rate constant, fixed to a published value” is listed as 3.3 (FIXED) /h and the “Ticlopidine half-life after multiple dosing” value is recorded as “increased”. The “K a,TIC, absorption rate constant, fixed to a published value” in data set [4] (listed as ticlopidine) was 3.3 h⁻¹. Moreover, in data set [5] (SIR), the “V C, volume … SIR median” value is given as 50.8 L and the “V PER1, volume … SIR median” value came to 208.7 L. In data set [5] (final model), the “V C, volume … NONMEM mean θ estimate” value was 50.3 L and the “V PER1, volume … NONMEM mean θ estimate” value is 191 L.

On to `CCC(C)n1ncn(-c2ccc(N3CCN(c4ccc(OCC5COC(Cn6cncn6)(c6ccc(Cl)cc6Cl)O5)cc4)CC3)cc2)c1=O` (stereo not drawn) [Itraconazole], for which, in data set [2] (CYP3A inhibitor pretreatment, healthy volunteers), the “Effect on plasma concentrations of orally administered S-ketamine” value is on record as “no significant effect”.

For `NC1(c2ccccc2Cl)CCCCC1=O` (stereo not drawn) [Norketamine, norketamine], in data set [2] (S-ketamine i.v. placebo-phase), the “C max, NCA results” value is reported as 14 ng/mL. Besides, in data set [2] (S-ketamine p.o. placebo-phase), the “C max, NCA results” value is listed as 61 ng/mL and the “AUC, NCA results” value is 292 ng·h/mL. Further, in data set [2] (setting [7]), the “C max, NCA results” value is given as 46 ng/mL and the “AUC, NCA results” value was 310 ng·h/mL. Further, the “f u,GW, unbound drug fraction” value in data set [3] is 1. For the same compound, the “f u,NK, unbound drug fraction in the blood” value in data set [3] (norketamine) is given as 0.50. The “CLINT,H, intrinsic hepatic clearance, SIR median” value in data set [5] stood at 73.4 L/h. Further, in data set [5] (SIR), the “CLINT,GW, intrinsic gut wall clearance, SIR median” value is listed as 46.5 L/h; the “Q PER1, central to first peripheral compartment clearance, SIR median” value worked out at 20.1 L/h; the “V C, volume … SIR median” value was determined as 88 L; the “V PER1, volume … SIR median” value amounted to 88.8 L. Further, in data set [5] (exponential IIV model), the “Interindividual variability on CLINT,H, NONMEM estimate” value is 0.10. In data set [5] (exponential IIV model, SIR), the “Interindividual variability on CLINT,H, SIR median” value is given as 0.10. Besides, in data set [5] (final model), the “V C, volume … NONMEM mean θ estimate” value is 88.4 L; the “V PER1, volume … NONMEM mean θ estimate” value is 88.9 L; the “CLINT,GW, intrinsic gut wall clearance, NONMEM mean θ estimate” value is 44.4 L/h; the “CLINT,H, intrinsic hepatic clearance, NONMEM mean θ estimate” value is recorded as 73.5 L/h.

Consider `CNC1(c2ccccc2Cl)CCCCC1=O` (stereo not drawn) [ketamine], for which, in data set [4] (extensive first-pass metabolism), the “Bioavailability after oral administration” value is ~ 17%. Also, the “Fraction of ketamine metabolized by hepatic CYP2B6” value on CYP2B6 [6] was “around 60%”.
